The target of data set [1] is α-Glucosidase. Particulars: Figure 1; reference not given; cited from earlier work.
Data set [2] has as its system α-glucosidase. The data set can be described thus: Enzymatic kinetic study on α-glucosidase (Lineweaver–Burk). Format: biochemical, Saccharomyces cerevisiae. To be noted: for Type of inhibition of α-glucosidase: Lineweaver–Burk plots; for Ki: p-NPG 0.5–5.0 mM, nonlinear regression. How it is done:
The X-axis values represent the reciprocal for the α-glucosidase substrate, p-nitrophenyl-α-D-glucopyranoside (p-NPG), while for the α-amylase substrate they represent starch, thus being 1/(starch). The Y-axis values are the reciprocal of the reaction velocity (Vo), thus being 1/Vo.
(§1) To explore the type of enzyme inhibition, kinetic studies were carried out with α-glucosidase and α-amylase using a methodology such as that described in the inhibitory activity assays. The alkoxy-substituted xanthones were evaluated at four different concentrations according to their IC50. Various concentrations of substrates were used for each of the enzymes in the range of 0.5–5.0 mM for p-NPG in α-glucosidase and 0.1–1.0% for α-amylase. The type of inhibition for each test compound was determined by utilizing double reciprocal plots. Inhibition constants (KI) were calculated from substrate versus reaction rate curves using nonlinear regression of the enzyme inhibition kinetic function.

The nature of data set [3]: DPPH radical scavenging assay. Particulars: mean ± SD, n = 4. As for the experimental part:
The scavenging of free radicals by the synthesized compounds was assessed based on the previously reported DPPH radical assay, with slight modifications. The reaction mixture consisted of 50 µL of compound in DMSO at various concentrations (from 2.5 mM to 0.2 mM) and 150 µL of DPPH solution at 133.33 µM in absolute ethanol. The reaction components were added at a ratio of 1:3 (v/v). The mixture was incubated at 37 °C for 30 min before absorbance was read at 517 nm using a microplate reader (Epoch, BioTek®). Butylhydroxytoulene (BHT) served as the positive control. Scavenging capacity (%) is expressed as the percentage decrease in DPPH. SC% = [(Acontrol − Atest)/Acontrol] × 100 where Acontrol is absorbance of the DPPH solution (control) and Atest is the absorbance of the solution of DPPH and one of the compounds.

Data set [4] deals with T1, α-amylase (Sus scrofa, UniProt P00690).
T1 construct: purchased Sigma-Aldrich; host or cells: porcine pancreas
T1 sequence (P00690 16-511): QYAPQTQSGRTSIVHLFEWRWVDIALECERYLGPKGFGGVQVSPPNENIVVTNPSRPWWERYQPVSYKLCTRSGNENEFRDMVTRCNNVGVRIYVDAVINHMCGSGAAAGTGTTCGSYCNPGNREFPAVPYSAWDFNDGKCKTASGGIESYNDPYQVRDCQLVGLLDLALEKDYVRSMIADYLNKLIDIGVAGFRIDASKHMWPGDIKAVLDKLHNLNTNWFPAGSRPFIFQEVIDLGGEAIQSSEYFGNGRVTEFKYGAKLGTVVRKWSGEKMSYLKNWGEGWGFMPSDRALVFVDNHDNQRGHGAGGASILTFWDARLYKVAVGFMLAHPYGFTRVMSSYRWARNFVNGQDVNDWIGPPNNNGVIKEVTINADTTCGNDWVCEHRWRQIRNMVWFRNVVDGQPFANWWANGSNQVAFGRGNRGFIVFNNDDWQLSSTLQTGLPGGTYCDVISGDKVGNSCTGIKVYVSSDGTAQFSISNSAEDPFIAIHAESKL
As to the kind of experiment: Enzymatic kinetic study on α-amylase (Lineweaver–Burk). Format: biochemical, porcine. Particulars: for Type of inhibition of α-amylase: Lineweaver–Burk plots; for Ki: starch 0.1–1.0%, nonlinear regression. How it is done:
These KI values indicate that 6c has greater affinity for the enzyme.
as §1

The subject of data set [5] is α-glucosidase. As to the kind of experiment: α-Glucosidase inhibition assay (p-NPG substrate). Format: biochemical, Saccharomyces cerevisiae. Particulars: mean ± SD, n = 4.
Protocol: The inhibitory activity of the compounds on α-glucosidase inhibition was quantified according to the method described by Salehi et al., with slight modifications [64]. A reaction was prepared by mixing 20 µL α-glucosidase solution (0.5 unit/mL), 120 µL 0.1 M phosphate buffer (pH 6.9), and 10 µL of the samples at concentrations from 400 µM to 4.0 µM. The solution was incubated in a 96-well microplate at 37 °C for 15 min. The enzymatic reaction was initiated by adding 20 µL of 5 mM p-NPG solution to 0.1 M phosphate buffer (pH 6.9), followed by incubation at 37 °C for 15 min. The reaction was stopped by adding 80 µL of 0.2 M sodium carbonate solution, and absorbance was read at 405 nm in a microplate reader (Epoch®, BioTek Instrument, Winooski, EUA). The reaction system without any test compounds was used as control, whereas the system without α-glucosidase served as blank for correcting background absorbance. The rate of α-glucosidase inhibition exerted by each sample was calculated with Equation (1):(1) % inhibition=Control absorbance−sample absorbance/Control absorbance×100
(§2) All measurements were performed in quadruplicate and the values are expressed as the mean ± standard deviation.
Data set [6] concerns the target T1, α-amylase. As to the kind of experiment: α-Amylase inhibition assay (starch/DNS).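 On all read-outs here: reducing sugar measured by DNS colour at 540 nm, inhibition relative to enzyme reaction lacking test compound, blank without enzyme subtracted for background.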 Format: biochemical, porcine. Particulars: mean ± SD, n = 4; for inhibition at 100 µM: NI = no inhibition; for IC50: compounds precipitate at 200 µM.
Protocol: α-Amylase inhibitory activity was quantified according to the method developed by Chokki et al., with some modifications [65]. […] Finally, 100 µL of 3,5-dinitrosalicylic acid (DNS) was added and heated at 100 °C for 20 min, and absorbance was then read at 540 nm in a microplate reader (Epoch, BioTek®). The reaction system without any test compound was used as the control, and the system without α-amylase served as a blank for correcting background absorbance. The percentage of α-amylase inhibition was calculated for each sample with Equation (2):(2) % inhibition=Control absorbance−sample absorbance/Control absorbance×100
as §2

A value given as a limit tells only on which side of the number the result lay.

In general, IC50 refers to the concentration needed to halve the response being measured. Regarding `Clc1ccc(-c2nc(-c3ccccc3)n3c2-c2[nH]c4ccccc4c2CC3)cc1` [Carbazole-imidazole], at α-Glucosidase [1], the IC50 was 81 µM.

Usually Ki stands for a dissociation constant, usually derived from enzyme kinetics or from competition with a known ligand. By melting point is commonly meant the temperature of the solid-liquid transition. In general, inhibition refers to the change of the read-out against control, counted positive when it falls. Regarding `COc1cc2oc3ccccc3c(=O)c2cc1OCC(=O)c1ccc(Cl)cc1` [Compound 6c, 2-(2-(4-Chlorophenyl)-2-oxoethoxy)-3-methoxy-9H-xanthen-9-one], the melting point lay within 175 to 176 °C. In addition, in the data set with α-glucosidase [2], the “Type of inhibition of α-glucosidase” value is “mixed mode” and the Ki is 21.5 µM. The “% DPPH Scavenging Activity (2.5 mM)” value in data set [3] was 8.7 ± 0.67 ^G %. For the same compound, at α-amylase [4], the “Type of inhibition of α-amylase” value was “competitive type of inhibitor” and affinity was put at a Ki of 63.2 µM. In the data set on α-glucosidase [5], the “α-Glucosidase Inhibition (%) at 400 µM” value worked out at 92.6 ± 0.11% and half-maximal inhibition (IC50) was put at 16 ± 0.03 µM. At α-amylase [6], this compound registered an inhibition at 100 µM of 64.8 ± 0.15% and an IC50 of 76.7 ± 0.03 µM.

On to `C=CCc1c(OCCCCBr)c(OC)cc2oc3ccccc3c(=O)c12` [Compound 9b, 1-Allyl-2-(4-bromobutoxy)-3-methoxy-9H-xanthen-9-one], for which, in the data set on α-glucosidase [2], the “Type of inhibition of α-glucosidase” value is “mixed mode” and the Ki came to 1.25 µM. Besides, the “% DPPH Scavenging Activity (2.5 mM)” value in data set [3] is reported as 17.6 ± 1.17 ^D %. Moreover, in the data set with α-glucosidase [5], the “α-Glucosidase Inhibition (%) at 400 µM” value was found to be 96.3 ± 0.2% and it took 4 ± 0.007 µM to reach half-maximal inhibition (IC50). At α-amylase [6], this compound yielded an inhibition at 100 µM of 3.87 ± 0.11% and an IC50 greater than 200 µM.

On to `COc1cc2oc3ccccc3c(=O)c2cc1OCCCCn1ccnc1-c1ccc(Cl)cc1` [Compound 10c, 2-(4-(2-(4-Chlorophenyl)-1H-imidazol-1-yl)butoxy)-3-methoxy-9H-xanthen-9-one], for which, in the data set on α-glucosidase [2], the “Type of inhibition of α-glucosidase” value was “mixed mode” and the Ki was determined as 139 µM. The “% DPPH Scavenging Activity (2.5 mM)” value in data set [3] is recorded as 11.6 ± 1.54 ^F,G %. For the same compound, at α-amylase [4], the “Type of inhibition of α-amylase” value is “mixed-type inhibitor” and the affinity corresponds to a Ki of 2.2 µM. Besides, in the data set with α-glucosidase [5], the “α-Glucosidase Inhibition (%) at 400 µM” value turned out to be 95.1 ± 0.15% and the IC50 worked out at 232.7 ± 0.11 µM. Moreover, at α-amylase [6], the inhibition at 100 µM was 99.5 ± 0.1% and half-maximal inhibition (IC50) required 5.4 ± 0.07 µM.

For the compound `C=CCc1c(OCC(O)Cn2ccnc2)c(OC)cc2oc3ccccc3c(=O)c12` (stereo not drawn) [Compound 12d, 1-Allyl-2-(2-hydroxy-3-(1H-imidazol-1-yl)propoxy)-3-methoxy-9H-xanthen-9-one], the melting point is 187 to 189 °C. Also, the “% DPPH Scavenging Activity (2.5 mM)” value in data set [3] is recorded as 10.1 ± 0.87 ^G %. Besides, in the data set on α-glucosidase [5], the “α-Glucosidase Inhibition (%) at 400 µM” value is on record as 52.2 ± 0.87% and the IC50 stood at 400.2 ± 0.24 µM. At α-amylase [6], this compound displayed an inhibition at 100 µM of 1.5 ± 0.1% and an IC50 greater than 200 µM.

Regarding `C=CCc1c(OCC(O)Cn2ccnc2-c2ccccc2)c(OC)cc2oc3ccccc3c(=O)c12` (stereo not drawn) [Compound 12e, 1-Allyl-2-(2-hydroxy-3-(2-phenyl-1H-imidazol-1-yl)propoxy)-3-methoxy-9H-xanthen-9-one], the melting point was 187 to 189 °C. Further, the “% DPPH Scavenging Activity (2.5 mM)” value in data set [3] was 17.6 ± 1.14 ^D %. In addition, in the data set with α-glucosidase [5], the “α-Glucosidase Inhibition (%) at 400 µM” value amounted to 96.6 ± 1.45% and the IC50 was found to be 104.9 ± 0.01 µM. Further, at α-amylase [6], testing at 100 µM gave an inhibition of 2.4 ± 0.15% and the IC50 was greater than 200 µM.

`C=CCc1c(OCC(O)Cn2ccnc2-c2ccc(Cl)cc2)c(OC)cc2oc3ccccc3c(=O)c12` (stereo not drawn) [Compound 12f, 1-Allyl-2-(3-(2-(4-chlorophenyl)-1H-imidazol-1-yl)-2-hydroxypropoxy)-3-methoxy-9H-xanthen-9-one] displayed a melting point of 116 to 118 °C. Moreover, in data set [3], the “% DPPH Scavenging Activity (2.5 mM)” value is given as 18.1 ± 1.57 ^D %. Further, in the data set on α-glucosidase [5], the “α-Glucosidase Inhibition (%) at 400 µM” value is listed as 99.1 ± 1.31% and half-maximal inhibition (IC50) was put at 71.9 ± 0.08 µM. Further, on α-amylase [6], the inhibition at 100 µM stood at 4.7 ± 0.32% and the IC50 was greater than 200 µM.

Consider `O=c1c2c(O)cc(O)cc2oc2cc(O)c(-c3c(O)ccc4ccc(O)cc34)c(O)c12` [Dihydroxynaphtalenyl-xanthone], for which, on α-Glucosidase [1], the IC50 is 47.6 µM.

As for `Cc1cc(C)n(-c2ccc(-n3c(-c4ccccc4)nc(-c4ccccc4)c3-c3ccccc3)cc2)n1` [Imidazole-pyrazole], the IC50 at α-Glucosidase [1] was 105 µM.

For the compound `COc1c(O)cc2oc3cc(O)c(CC=C(C)C)c(O)c3c(=O)c2c1CC=C(C)C` [α-Mangostin, α-mangostin], the IC50 on α-Glucosidase [1] is 5 µM.

Source of the values: publication PMC10222686, “Synthesis and Molecular Docking Studies of Alkoxy- and Imidazole-Substituted Xanthones as α-Amylase and α-Glucosidase Inhibitors” (Molecules, 2023).
